From patent US11767330B2, “Citrate salt, pharmaceutical compositions, and methods of making and using the same” (Foghorn Therapeutics Inc., priority 2021, dated 2023)
Entries after “also recorded” stand apart in the source; their conditions may differ.

Columns and labels:
BRD9 = target: T1, BRD9 (Homo sapiens, UniProt Q9H8M2); assay: BRD9 degradation in synovial sarcoma tumor in vivo, western blot (Example 12); set-up: Tumors were lysed with 1×RIPA lysis buffer; from tissue; host or cells: SYO-1 xenograft tumours in BALB/c Nude mice; species or system mice; settings: 1 mg/kg, i.p., 4 weeks; tumors 8, 72, 168 hours post last dose
T1 sequence (Q9H8M2 1-597): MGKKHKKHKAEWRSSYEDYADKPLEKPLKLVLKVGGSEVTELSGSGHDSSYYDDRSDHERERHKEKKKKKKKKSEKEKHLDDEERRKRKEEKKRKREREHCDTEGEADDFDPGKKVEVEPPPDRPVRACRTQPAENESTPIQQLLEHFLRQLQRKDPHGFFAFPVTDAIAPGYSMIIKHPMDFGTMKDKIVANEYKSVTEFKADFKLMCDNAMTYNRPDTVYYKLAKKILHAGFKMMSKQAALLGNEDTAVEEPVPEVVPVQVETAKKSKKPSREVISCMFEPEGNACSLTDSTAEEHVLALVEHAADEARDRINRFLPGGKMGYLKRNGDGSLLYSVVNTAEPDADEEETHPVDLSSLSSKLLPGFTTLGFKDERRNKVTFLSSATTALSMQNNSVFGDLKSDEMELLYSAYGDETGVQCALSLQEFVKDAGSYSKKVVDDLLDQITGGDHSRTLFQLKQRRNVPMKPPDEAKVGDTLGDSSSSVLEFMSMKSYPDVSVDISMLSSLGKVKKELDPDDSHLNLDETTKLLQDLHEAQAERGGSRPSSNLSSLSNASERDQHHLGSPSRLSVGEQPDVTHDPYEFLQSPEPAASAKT
Experimental: Method: Mice were treated with D1, 1 mg/kg, i.p. for 4 weeks. Mice were then euthanized, and tumors were collected at 8 hours, 72 hours, and 168 hours post last dose. Tumors were lysed with 1×RIPA lysis buffer (Boston BioProducts, BP-115D) with protease and phosphatase protein inhibitor (Roche Applied Science #04906837001 & 05892791001). Equal amounts of lysate (30 μg) were loaded in 4-12% Bis-Tris Midi Protein Gels in 1×MOPS buffer; samples ran at 120 V for 120 minutes. Protein was transferred to membrane with TransBlot at 250 mA for 150 minutes, and then membranes were blocked with Odyssey blocking buffer for 1 hour at room temperature. Membranes were hybridized overnight in cold room with primary antibodies. Images acquired using Li—COR imaging system (Li—COR Biotechnology, Lincoln, Nebr.).

[1] = Tolerability by % body weight change (Example 11); type: in vivo; settings: 1 mg/kg, i.p., daily, 3 weeks
Experimental: (§1) Method: NOD SCID mice (Beijing Anikeeper Biotech, Beijing) were inoculated subcutaneously on the right flank with the single cell suspension of SYO-1 human biphasic synovial sarcoma tumor cells (5×106) in 100 μL Dulbecco's Modified Eagle Medium (DMEM) with 10% fetal bovine serum (FBS). The mice were randomized into either control group [10% dimethyl sulfoxide (DMSO), 40% polyethylene glycol (PEG400) and 50% water], or treatment group D1 when the mean tumor size reached about 117 mm^3. Mice were dosed daily through intraperitoneal (i.p.) route over the course of 3 weeks. All dose volumes were adjusted by body weights in terms of mg/kg.

[2] = system: SYO-1 human biphasic synovial sarcoma tumor cells; assay: SYO-1 xenograft tumor growth (Example 11); type: in vivo; settings: 1 mg/kg, i.p., daily, 3 weeks, NOD SCID mice
Experimental: as §1

COc1cc(-c2cn(C)c(=O)c3cnc(N4CCC4)cc23)cc(OC)c1CN1CCC(CN2CCC3(CC2)CN(c2ccc4c(c2)C(=O)N(C2CCC(=O)NC2=O)C4)C3)CC1 (racemic) [Compound D1, 3-[6-(7-[[1-([4-[6-(azetidin-1-yl)-2-methyl-1-oxo-2,7-naphthyridin-4-yl]-2,6-dimethoxyphenyl]methyl)piperidin-4-yl]methyl]-2,7-diazaspiro[3.5]nonan-2-yl)-1-oxo-3H-isoindol-2-yl]piperidine-2,6-dione]
BRD9 level in tumor (western blot) (BRD9): BRD9 inhibition; also recorded: complete degradation of BRD9 target up to 168 hours after dose
tolerability based on % body weight change [1]: well tolerated
tumor growth [2]: tumor growth inhibition
